In BindingDB's records for doi:10.1021/jm00056a003 (Universit&#224, 1993):

Molecular target: L-type calcium channel (Felis catus)
Test: Inhibition of (-)-[3H]- D-888 binding to L-type calcium channels in kitten heart ventricle membranes

- IC50: 0.26 µM
SMILES: COc1ccc(CCN(C)C2CCCC(C(C#N)(c3ccc(OC)c(OC)c3)C(C)C)C2)cc1OC (stereo unspecified) [(RSR) 2-(3,4-Dimethoxy-phenyl)-2-(3-{[2-(3,4-dimethoxy-phenyl)-ethyl]-methyl-amino}-cyclohexyl)-3-methyl-butyronitrile]
